From patent US20230130102A1, “Na/K-ATPase LIGANDS AND USE THEREOF FOR TREATMENT OF CANCER” (Marshall University Research Corporation, priority 2019, published 2023)
“Also recorded” adds a separate entry of the source.

Experiments:
[1] = target: T1, α1 NKA/Src receptor complex (Sus scrofa, UniProt P05024); assay: ouabain-induced Src/ERK activation in LLC-PK1 cells (immunostaining, Western blot); type: cell-based, pig
T1 construct: endogenous in cells; host or cells: LLC-PK1
Procedure: Western blot, Immunoprecipitation and Immunostaining. Cells were grown to 100% confluency and Western blot were performed as described before. Images were quantified with ImageJ software from NIH. Immunoprecipitation studies were performed as described before. α1 NKA immunostaining was performed by growing cells on sterilized coverslips in 6 well tissue culture plates and permeabilization/fixation with ice-cold methanol followed by blocking with 5% horse serum and 0.1% Triton X-100 in 1× Phosphate buffered saline (PBS) for 30 minutes. Coverslips were then stained with an anti-α1 NKA antibody (Millipore, Cat #05-369) at 1:100 dilution in 1% BSA (Bovine Serum Albumin) containing 1×PBS solution for overnight. Next day after three washes, coverslips were stained with Alexa Fluor 488 conjugated anti-mouse secondary antibody (Thermo-Fisher) for 1 hour, washed extensively and then imaged using a fluorescent microscope with GFP filter or confocal microscope (LEICA-DMIRE2). E-cadherin and occludin immunostaining was performed in a similar manner. Phospho-Src, phospho ERK1/2 immunostaining were performed as described before and images were taken with a LEICA DMIRE2 confocal microscope.
Characterization of MB5 activity on the NKA receptor function known as the NKA/Src binary receptor mechanism was conducted in a pig kidney epithelial cells (LLC-PK1)-based platform using immunostaining and Western blot analyses. […] The change of NKA conformation that occurs upon binding of agonists such as ouabain, results in the release and activation of the Src kinase domain from the “Naktide” site of NKA CD3, while the other interaction (constitutive) persists between NKA CD2 and the SH2 domain of Src. […] In LLC-PK1-derived cells with low NKA receptor constitutive activity due to substantial reduction (over 80%) of α1 NKA expression by siRNA (PY17 cells), increased basal Src and ERK activity is observed due to the abnormally high amount of Src kinase that remains in an active conformation. […]

[2] = system: subclone 2 spheroids; assay: MMP secretion by spheroids (Western blot of conditioned media); type: cell-based, human
Procedure: For drug treatment, compound was diluted into media, from stock solution. For MMP secretion, conditioned media for 3 days were collected from top of matrix and assessed for MMP secretion by Western blot using Matrix Remodeling Antibody Sampler kit from Cell Signaling Technology (Cat #73959).

[3] = system: KD cells from C4-2; assay: Western blot of EMT phenotype in α1 KD cells derived from C4-2; type: cell-based, human; conditions: KD cells from C4-2, 1 μM
Procedure: Cell lines. DU145, PC3 and C4-2 cell lines were purchased from and maintained according to ATCC recommendations. Parental DU145 and derived cell lines were cultured in high glucose […] supplemented with 10% Fetal Bovine Serum and 1% Penicillin/Streptomycin in 37° c. humidified incubator with 5% C02. LLC-PK1, PY17, Y260A, A425P and YFP-α1TCN cells were cultured in the same media and under similar conditions. PC3 and C4-2 cell lines were cultured in RPMI medium with similar conditions as described above. α1 knockdown KD cells were generated from DU145 and C4-2 using a α1 NKA-specific siRNA, as previously described. Knockdown was verified by both qPCR and Western blot analyses. Rat α1 NKA rescued cell lines were generated by transfecting KD cells with a pRC/CMV-α1 AACm1 vector followed by selection with ouabain (2 μM), as previously described. Cells were passaged for three generations without ouabain before conducting experiments.
Western blot, Immunoprecipitation and Immunostaining. Cells were grown to 100% confluency and Western blot were performed as described before. Images were quantified with ImageJ software from NIH. […]

[4] = system: A425P and Y260A cells; assay: basal ERK activation in Src binding mutant Y260A and A425P cells; type: cell-based, pig
Procedure: Characterization of MB5 activity on the NKA receptor function known as the NKA/Src binary receptor mechanism was conducted in a pig kidney epithelial cells (LLC-PK1)-based platform using immunostaining and Western blot analyses. […] The change of NKA conformation that occurs upon binding of agonists such as ouabain, results in the release and activation of the Src kinase domain from the “Naktide” site of NKA CD3, while the other interaction (constitutive) persists between NKA CD2 and the SH2 domain of Src. […] In LLC-PK1-derived cells with low NKA receptor constitutive activity due to substantial reduction (over 80%) of α1 NKA expression by siRNA (PY17 cells), increased basal Src and ERK activity is observed due to the abnormally high amount of Src kinase that remains in an active conformation. Increased basal Src and ERK activity is also observed in LLC-PK1-derived cells with reduced NKA receptor constitutive activity that result from mutations in either domain of interaction with Src without alteration of the ion pumping activity (e.g. A425P on the Naktide sequence, or Y260A on the CD2 domain).

For `O=c1c2cccc(O)c2oc2c(O)c(O)ccc12` [MB5], the “ERK activation / NKA receptor function by the compound alone” value ([1]; baseline) was “did not activate NKA receptor function under baseline condition; also recorded: did not activate ERK”, the “inhibition of ouabain-induced ERK (and Src) activation” value ([1]; pretreatment before ouabain) was “abolished ouabain-induced ERK activation; also recorded: better efficacy to inhibit ouabain-induced ERK activation than MB7; also recorded: dose-dependently inhibited Src and ERK activation; also recorded: significantly decreased ouabain-induced ERK signal” and the “MMP2 and 9 secretion” value [2] was “significantly reduced MMP2 and 9 secretions”. The “expression of SNAIL, SLUG and Myc” value [3] was “inhibiting the expression of SNAIL, SLUG and Myc”, the “occludin and E-cadherin expression” value [3] was “upregulate occludin and E-cadherin expression” and the “basal ERK phosphorylation” value [4] was “did not reduce high levels of ERK phosphorylation”.
